Test results reported in PubChem BioAssay AID328 (DTP/NCI, 2004).
Several values for one entry are separate records, joined by “and”; a condition that tells them apart may be missing. Equal entries are not always repeated. Toxic doses and inconclusive results are not listed.

Tested on: BDF1 mice, P388 leukemia ip, median survival T/C
Test: NCI In Vivo Anticancer Drug Screen. Data for tumor model P388 Leukemia (intraperitoneal) in B6D2F1 (BDF1) mice
Conditions: endpoint: median survival time, higher = longer survival
In short: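 Antitumour effect was judged in vivo: survival in drug-treated mice, normalised to that of vehicle-dosed controls, gives the reported T/C.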

[1] = dose: 50.0 mg/kg/injection, schedule: Q01DX009 (ip), vehicle: other
[2] = dose: 100.0 mg/kg/injection, schedule: Q01DX009 (ip), vehicle: other
[3] = dose: 200.0 mg/kg/injection, schedule: Q01DX009 (ip), vehicle: other
[4] = dose: 12.5 mg/kg/injection, schedule: Q01DX009 (ip), vehicle: Klucel (hydroxypropylcellulose) (HPC)
[5] = dose: 25.0 mg/kg/injection, schedule: Q01DX009 (ip), vehicle: Klucel (hydroxypropylcellulose) (HPC)
[6] = dose: 50.0 mg/kg/injection, schedule: Q01DX009 (ip), vehicle: saline with Tween-80
[7] = dose: 25.0 mg/kg/injection, schedule: Q04DX003 (ip), vehicle: saline
[8] = dose: 50.0 mg/kg/injection, schedule: Q04DX003 (ip), vehicle: saline
[9] = dose: 100.0 mg/kg/injection, schedule: Q04DX003 (ip), vehicle: saline
[10] = dose: 100.0 mg/kg/injection, schedule: Q01DX009 (ip), vehicle: saline with Tween-80
[11] = dose: 200.0 mg/kg/injection, schedule: Q01DX009 (ip), vehicle: saline with Tween-80
[12] = dose: 100.0 mg/kg/injection, schedule: Q04DX003 (ip), vehicle: saline with Tween-80
[13] = dose: 400.0 mg/kg/injection, schedule: Q01DX009 (ip), vehicle: saline with Tween-80
[14] = dose: 150.0 mg/kg/injection, schedule: Q04DX003 (ip), vehicle: saline with Tween-80

SMILES: O=C(O)CCC(=O)O
- T/C (dose: 10.0 mg/kg/injection, schedule: Q01DX009 (ip), vehicle: saline): 101 % of control and 122 % of control and 100 % of control
- T/C (dose: 10.0 mg/kg/injection, schedule: Q01DX009 (ip), vehicle: water): 111 % of control and 98 % of control
- T/C (dose: 20.0 mg/kg/injection, schedule: Q01DX009 (ip), vehicle: saline): 105 % of control and 115 % of control and 106 % of control
- T/C (dose: 20.0 mg/kg/injection, schedule: Q01DX009 (ip), vehicle: water): 117 % of control and 120 % of control
- T/C (dose: 25.0 mg/kg/injection, schedule: Q01DX009 (ip), vehicle: other): 105 % of control and 120 % of control
- T/C (dose: 40.0 mg/kg/injection, schedule: Q01DX009 (ip), vehicle: saline): 109 % of control and 108 % of control
- T/C (dose: 40.0 mg/kg/injection, schedule: Q01DX009 (ip), vehicle: water): 124 % of control and 100 % of control
- T/C [1]: 103 % of control and 102 % of control
- T/C (dose: 80.0 mg/kg/injection, schedule: Q01DX009 (ip), vehicle: saline): 108 % of control and 117 % of control
- T/C (dose: 80.0 mg/kg/injection, schedule: Q01DX009 (ip), vehicle: water): 115 % of control and 117 % of control
- T/C [2]: 102 % of control and 119 % of control
- T/C (dose: 160.0 mg/kg/injection, schedule: Q01DX009 (ip), vehicle: saline): 114 % of control and 110 % of control
- T/C (dose: 160.0 mg/kg/injection, schedule: Q01DX009 (ip), vehicle: water): 98 % of control and 124 % of control
- T/C [3]: 110 % of control
- T/C (dose: 200.0 mg/kg/injection, schedule: Q01DX009 (ip), vehicle: saline): 99 % of control and 115 % of control

SMILES: O=C1CCCCC1N1CCCCC1 (centres undefined)
- T/C (dose: 50.0 mg/kg/injection, schedule: Q01DX005 (ip), vehicle: saline with Tween-80): 98 % of control
- T/C (dose: 100.0 mg/kg/injection, schedule: Q01DX005 (ip), vehicle: saline with Tween-80): 105 % of control

SMILES: CC(=O)O.[Pb]
- T/C [4]: 109 % of control
- T/C [5]: 109 % of control
- T/C (dose: 25.0 mg/kg/injection, schedule: Q01DX009 (ip), vehicle: saline with Tween-80): 90 % of control
- T/C [6]: 90 % of control

SMILES: COc1ccc(SC2=C(N(C)C(C)=O)C(=O)c3ccccc3C2=O)cc1
- T/C (dose: 0.93 mg/kg/injection, schedule: Q01DX009 (ip), vehicle: Klucel (hydroxypropylcellulose) (HPC)): 109 % of control
- T/C (dose: 1.87 mg/kg/injection, schedule: Q01DX009 (ip), vehicle: Klucel (hydroxypropylcellulose) (HPC)): 113 % of control
- T/C (dose: 3.75 mg/kg/injection, schedule: Q01DX009 (ip), vehicle: Klucel (hydroxypropylcellulose) (HPC)): 113 % of control
- T/C (dose: 7.5 mg/kg/injection, schedule: Q01DX009 (ip), vehicle: Klucel (hydroxypropylcellulose) (HPC)): 108 % of control
- T/C (dose: 11.0 mg/kg/injection, schedule: Q04DX003 (ip), vehicle: Klucel (hydroxypropylcellulose) (HPC)): 100 % of control
- T/C (dose: 17.0 mg/kg/injection, schedule: Q04DX003 (ip), vehicle: Klucel (hydroxypropylcellulose) (HPC)): 100 % of control

SMILES: Cc1n(CC(C)C)c2c([n+]1CC(=O)c1ccc([N+](=O)[O-])cc1)C(=O)c1ccccc1C2=O
- T/C (dose: 1.25 mg/kg/injection, schedule: Q01DX010 (ip), vehicle: saline): 118 % of control
- T/C (dose: 2.5 mg/kg/injection, schedule: Q01DX010 (ip), vehicle: saline): 122 % of control
- T/C (dose: 5.0 mg/kg/injection, schedule: Q01DX010 (ip), vehicle: saline): 104 % of control

SMILES: O=CC(Cl)Cl
- T/C [7]: 100 % of control
- T/C [8]: 95 % of control
- T/C [9]: 100 % of control

SMILES: CCNc1ncc([N+](=O)[O-])c(Nc2ccccc2)n1
- T/C [6]: 103 % of control
- T/C [10]: 103 % of control
- T/C [11]: 88 % of control

SMILES: COc1ccc(/C=C/NC=O)cc1
- T/C (dose: 50.0 mg/kg/injection, schedule: Q04DX003 (ip), vehicle: other): 105 % of control
- T/C (dose: 100.0 mg/kg/injection, schedule: Q04DX003 (ip), vehicle: other): 112 % of control
- T/C (dose: 200.0 mg/kg/injection, schedule: Q04DX003 (ip), vehicle: other): 112 % of control
- T/C (dose: 400.0 mg/kg/injection, schedule: Q04DX003 (ip), vehicle: other): 91 % of control

SMILES: Clc1ccc(CSc2ncnc3nc[nH]c23)cc1
- T/C [10]: 100 % of control
- T/C [11]: 104 % of control

SMILES: COc1ccc(C(C#N)Nc2ccccc2)cc1 (centres undefined)
- T/C [10]: 105 % of control
- T/C [12]: 109 % of control
- T/C [11]: 110 % of control
- T/C (dose: 200.0 mg/kg/injection, schedule: Q04DX003 (ip), vehicle: saline with Tween-80): 100 % of control
- T/C [13]: 95 % of control
- T/C (dose: 400.0 mg/kg/injection, schedule: Q04DX003 (ip), vehicle: saline with Tween-80): 109 % of control

SMILES: Cc1ccc(S(=O)(=O)N(c2ccccc2)c2ccccc2)cc1
- T/C (dose: 87.5 mg/kg/injection, schedule: Q01DX009 (ip), vehicle: saline with Tween-80): 96 % of control
- T/C (dose: 175.0 mg/kg/injection, schedule: Q01DX009 (ip), vehicle: saline with Tween-80): 96 % of control
- T/C (dose: 350.0 mg/kg/injection, schedule: Q01DX009 (ip), vehicle: saline with Tween-80): 101 % of control

SMILES: Cc1ccc(C(=O)C2(c3ccc(C)cc3)OC(c3ccc(C)cc3)=C(c3ccc(C)cc3)S2)cc1 (centres undefined)
- T/C [1]: 104 % of control
- T/C [2]: 100 % of control
- T/C [3]: 100 % of control

SMILES: COc1ccc(/C=C/C(=O)c2ccc3c(c2)OCO3)cc1OC
- T/C (dose: 44.0 mg/kg/injection, schedule: Q01DX009 (ip), vehicle: saline with Tween-80): 109 % of control
- T/C (dose: 44.0 mg/kg/injection, schedule: Q04DX003 (ip), vehicle: saline with Tween-80): 109 % of control
- T/C (dose: 66.0 mg/kg/injection, schedule: Q01DX009 (ip), vehicle: saline with Tween-80): 118 % of control
- T/C (dose: 66.0 mg/kg/injection, schedule: Q04DX003 (ip), vehicle: saline with Tween-80): 109 % of control
- T/C (dose: 88.0 mg/kg/injection, schedule: Q01DX009 (ip), vehicle: saline with Tween-80): 123 % of control
- T/C [12]: 109 % of control
- T/C [14]: 109 % of control
- T/C [11]: 157 % of control
- T/C [13]: 194 % of control

SMILES: Cn1cnc([N+](=O)[O-])c1[Se]c1ncnc2c1ncn2C1OC(CO)C(O)C1O (centres undefined)
- T/C (dose: 6.25 mg/kg/injection, schedule: Q01DX009 (ip), vehicle: saline): 105 % of control
- T/C (dose: 12.5 mg/kg/injection, schedule: Q01DX009 (ip), vehicle: saline): 113 % of control
- T/C (dose: 12.5 mg/kg/injection, schedule: Q04DX003 (ip), vehicle: saline): 113 % of control
- T/C (dose: 25.0 mg/kg/injection, schedule: Q01DX009 (ip), vehicle: saline): 102 % of control
- T/C [7]: 100 % of control and 104 % of control
- T/C [8]: 100 % of control and 113 % of control
- T/C [9]: 100 % of control
- T/C (dose: 200.0 mg/kg/injection, schedule: Q04DX003 (ip), vehicle: saline): 100 % of control

SMILES: CCSC1(SCC)C(=O)OC2=C(CCCC2)C1N(C)C (centres undefined)
- T/C [6]: 90 % of control
- T/C [10]: 103 % of control
- T/C [11]: 105 % of control

SMILES: CC(=O)c1ccccc1OCC(O)CN1CCN(c2ccccc2Cl)CC1 (centres undefined)
- T/C (dose: 37.5 mg/kg/injection, schedule: Q04DX003 (ip), vehicle: saline with Tween-80): 100 % of control
- T/C (dose: 75.0 mg/kg/injection, schedule: Q04DX003 (ip), vehicle: saline with Tween-80): 109 % of control
- T/C [14]: 90 % of control

SMILES: CC1CNC2C(C)C3C(CC4C5CCC6CC(N)CCC6(C)C5CCC43C)OC2(O)C1 (centres undefined)
- T/C (dose: 12.5 mg/kg/injection, schedule: Q04DX003 (ip), vehicle: saline with Tween-80): 112 % of control
- T/C (dose: 25.0 mg/kg/injection, schedule: Q04DX003 (ip), vehicle: saline with Tween-80): 100 % of control
- T/C (dose: 50.0 mg/kg/injection, schedule: Q04DX003 (ip), vehicle: saline with Tween-80): 91 % of control

SMILES: CCSc1nc2ccc(Nn3nnnc3-c3ccccc3)cc2s1
- T/C [4]: 272 % of control
- T/C [5]: 98 % of control
- T/C (dose: 50.0 mg/kg/injection, schedule: Q01DX009 (ip), vehicle: Klucel (hydroxypropylcellulose) (HPC)): 118 % of control

SMILES: Cc1cc(C)nc(NS(=O)(=O)c2ccc(N=Nc3nc4[nH]c(N)nc(=S)c4[nH]3)cc2)n1
- T/C (dose: 1.56 mg/kg/injection, schedule: Q01DX009 (ip), vehicle: Klucel (hydroxypropylcellulose) (HPC)): 113 % of control
- T/C (dose: 3.13 mg/kg/injection, schedule: Q01DX009 (ip), vehicle: Klucel (hydroxypropylcellulose) (HPC)): 117 % of control
- T/C (dose: 6.25 mg/kg/injection, schedule: Q01DX009 (ip), vehicle: Klucel (hydroxypropylcellulose) (HPC)): 112 % of control and 113 % of control
- T/C (dose: 50.0 mg/kg/injection, schedule: Q04DX003 (ip), vehicle: Klucel (hydroxypropylcellulose) (HPC)): 116 % of control
- T/C (dose: 100.0 mg/kg/injection, schedule: Q04DX003 (ip), vehicle: Klucel (hydroxypropylcellulose) (HPC)): 108 % of control
- T/C (dose: 200.0 mg/kg/injection, schedule: Q04DX003 (ip), vehicle: Klucel (hydroxypropylcellulose) (HPC)): 104 % of control
